Key:
[1] = test system: peripheral blood mononuclear cells from Mtb-immune (PPD skin-test positive) subjects; format: cell-based, human; conditions: for Phil # responders (n = 38) / Phil % responders (n = 38): Philippines cohort; for Phil # responders (n = 38) / Phil % responders (n = 38) / Prov # responders (n = 22) / Prov % responders (n = 22): positive if SI≧2.0, peptide 1 and 10 μg/ml; for Prov # responders (n = 22) / Prov % responders (n = 22): Providence cohort; for number of Mtb-immune responders (proliferative response): all 40 Mtb-immune subjects; for number of Mtb-immune responders (proliferative response) / % responders among Mtb-immune subjects: SI≧2.0
[2] = test system: peripheral blood mononuclear cells from Mtb-naïve (PPD skin-test negative) subjects; assay: Lymphoproliferation assay ([3H]thymidine, stimulation index), Mtb-naïve group; format: cell-based, human; conditions: 19 Mtb-naïve controls; SI≧2.0

| Substance | Phil # responders (n = 38) [1] | Phil % responders (n = 38) [1] [%] | Prov # responders (n = 22) [1] | Prov % responders (n = 22) [1] [%] | number of Mtb-immune responders (proliferative response) [1] | % responders among Mtb-immune subjects ([1]; 40 Mtb-immune subjects) [%] | Mtb-naïve controls who responded [2] | SI range [1] | Mtb-immune subjects showing an in vitro proliferative response ([1]; control antigen 5 μg/ml, 40 Mtb-immune subjects) | response to mitogen ([1]; PHA 1 μg/ml, the 41 subjects who were tested) |
| --- | --- | --- | --- | --- | --- | --- | --- | --- | --- | --- |
| AELPGVDPDKDVD (listed as Mycobacterium tuberculosis) [16-3, aa 54-66 of 16 kDa Mtb protein] | 0 | 0 | 1 | 3 | one | – | – | – | – | – |
| ALYLLDGLRAQDD (listed as Mycobacterium tuberculosis) [32-2, aa 35-47 of 32 kDa Mtb protein (Antigen 85A)] | 3 | 8 | 2 | 5 | – | – | – | – | – | – |
| CEVWSNVSETISGPRLYGEM (listed as Mycobacterium tuberculosis) [14-5, aa 74-93 of 14 kDa Mtb protein] | 2 | 5 | 2 | 5 | – | – | – | – | – | – |
| EYWGAQLNAMKP (listed as Mycobacterium tuberculosis) [32-11, aa 265-276 of 32 kDa Mtb protein (Antigen 85A)] | 3 | 8 | 1 | 3 | – | – | – | – | – | – |
| FAYGSFVRTVSLPVGA (listed as Mycobacterium tuberculosis) [16-5, aa 92-107 of 16 kDa Mtb protein] | 4 | 10 | 7 | 18 | six | 28 | none | – | – | – |
| FSELFAAFPSFAGLRPTFDT (listed as Mycobacterium tuberculosis) [16-2, aa 17-36 of 16 kDa Mtb protein] | 4 | 10 | 1 | 3 | – | – | – | – | – | – |
| GILTVSVAVSEGKPTEK (listed as Mycobacterium tuberculosis) [16-6, aa 119-135 of 16 kDa Mtb protein] | 2 | 5 | 1 | 3 | – | – | – | – | – | – |
| GSFGSAPSNGWLKLGLVEFG (listed as Mycobacterium tuberculosis) [14-2, aa 19-38 of 14 kDa Mtb protein] | 6 | 15 | 3 | 8 | six | – | – | – | – | – |
| GVFDFPDSGTHSW (listed as Mycobacterium tuberculosis) [32-10, aa 252-264 of 32 kDa Mtb protein (Antigen 85A)] | 3 | 8 | 2 | 5 | – | – | – | – | – | – |
| IAIGGAATGIAAVLTDGNPP [19-3] | 4 | 10 | 3 | 8 | six | – | – | – | – | – |
| KFLEGFVRTSNIKFQD (listed as Mycobacterium tuberculosis) [32-9, aa 227-242 of 32 kDa Mtb protein (Antigen 85A)] | 3 | 8 | 3 | 8 | six | – | – | – | – | – |
| LAIYHPQQFVYAGAMSGLLD (listed as Mycobacterium tuberculosis) [32-7, aa 135-154 of 32 kDa Mtb protein (Antigen 85A)] | 5 | 13 | 6 | 15 | six | – | – | – | – | – |
| LKLGLVEFGGVAKLNAEVMS (listed as Mycobacterium tuberculosis) [14-3, aa 30-49 of 14 kDa Mtb protein] | 3 | 8 | 4 | 10 | six | – | – | – | – | – |
| LPVEYLQVPSPSMGR (listed as Mycobacterium tuberculosis) [32-1, aa 6-20 of 32 kDa Mtb protein (Antigen 85A)] | 3 | 8 | 2 | 5 | – | – | – | – | – | – |
| LTIKAERTEQK (listed as Mycobacterium tuberculosis) [16-4, aa 74-84 of 16 kDa Mtb protein] | 0 | 0 | 5 | 13 | – | – | – | – | – | – |
| MLGNAPSVVPNTTLGMHC (listed as Mycobacterium tuberculosis) [14-1, aa 1-18 of 14 kDa Mtb protein] | 2 | 5 | 2 | 5 | – | – | – | – | – | – |
| PLLNVGKLIANNTRVWVY (listed as Mycobacterium tuberculosis) [32-8, aa 193-210 of 32 kDa Mtb protein (Antigen 85A)] | 5 | 13 | 0 | 0 | – | 25 | none | – | – | – |
| QAVMLGTGTPNRA (listed as Mycobacterium tuberculosis) [14-4, aa 56-68 of 14 kDa Mtb protein] | 3 | 8 | 1 | 3 | – | – | – | – | – | – |
| QNVTGSVVCTTAAGNVN [19-2] | 3 | 8 | 4 | 10 | six | – | – | – | – | – |
| RHVKPTGSAVVGLSMAASSA (listed as Mycobacterium tuberculosis) [32-5, aa 113-132 of 32 kDa Mtb protein (Antigen 85A)] | 2 | 5 | 8 | 20 | six | – | – | – | – | – |
| RSLFPEFSELFAAFPSFAGL (listed as Mycobacterium tuberculosis) [16-1, aa 11-30 of 16 kDa Mtb protein] | 4 | 10 | 2 | 5 | six | – | – | – | – | – |
| SHYKITGTATGVD [19-5] | 1 | 3 | 3 | 8 | – | – | – | – | – | – |
| SVVMPVGGQSSFYSDW (listed as Mycobacterium tuberculosis) [32-3, aa 67-82 of 32 kDa Mtb protein (Antigen 85A)] | 5 | 13 | 2 | 5 | six | – | – | – | – | – |
| TFLTSELPGWLQ (listed as Mycobacterium tuberculosis) [32-4, aa 99-110 of 32 kDa Mtb protein (Antigen 85A)] | 2 | 5 | 2 | 5 | – | – | – | – | – | – |
| TT: tetanus toxoid, control antigen (Connaught) [reference compound] | – | – | – | – | – | – | – | 2-182 | All but six | – |
| VAVAGAAILVAGLSGCSSN [19-1] | 5 | 13 | 8 | 20 | – | – | – | – | – | – |
| VGLSMAASSALTLAIYHPQQ (listed as Mycobacterium tuberculosis) [32-6, aa 123-142 of 32 kDa Mtb protein (Antigen 85A)] | 4 | 10 | 6 | 15 | six | – | – | – | – | – |
| VSETISGPRLYGEMTMQGTR (listed as Mycobacterium tuberculosis) [14-6, aa 80-99 of 14 kDa Mtb protein] | 1 | 3 | 1 | 3 | – | – | – | – | – | – |
| VTLGYTSGTGQ (listed as Mycobacterium tuberculosis) [19-4, aa 107-117 of 19 kDa Mtb protein] | 2 | 5 | 3 | 8 | – | – | – | – | – | – |
| phytohemagglutinin [reference compound] | – | – | – | – | – | – | – | – | – | robust response |

Reference: patent publication US20020192233A1, “Human T cell response to MHC-binding motif clusters” (priority 2000, published 2002)
